Entries after “also recorded” stand apart in the source; their conditions may differ.
Key:
Type in all cases: physicochemical
[1] = Hygroscopicity and humidity stability by DVS
Method: DVS data in the present disclosure were measured via an SMS (Surface Measurement Systems Ltd.) intrinsic DVS instrument. The instrument control software is DVS-Intrinsic control software. Typical Parameters for DVS test are as follows: • Temperature: 25° C. • Gas and flow rate: N2, 200 mL/min • RH range: 0% RH to 95% RH
DVS analyzer was applied to evaluate the hygroscopicity of Form CSI with an appropriate amount. The mass changes at each relative humidity were recorded in a cycle of 0% RH-95%RH-0%RH. The crystalline form of the sample before and after DVS were tested by XRPD.

[2] = Stability under mechanical force (ball milling); settings: milled 5 minutes at 500 rpm, XRPD
Method: The crystalline form of the sample before and after ball milling were tested by XRPD, and the XRPD overlay is depicted in FIG. 6.

[3] = Physical and chemical stability on storage (XRPD, HPLC)
Method: Chemical purity and crystalline form were tested by HPLC and XRPD.

[4] = 25° C./60% RH, 9 months, sealed container
[5] = 40° C./75% RH, 9 months, sealed container
[6] = 60° C./75% RH, 3 months, sealed container

Mass increase (weight gain) at 80% RH ([1]; DVS, 25° C., equilibrium at 80% RH): 0.18% | Crystalline form after humidity cycle ([1]; cycle of 0% RH-95%RH-0%RH, XRPD): remains unchanged | Time stable on storage (no change of crystalline form) ([3]; 25° C./60% RH): at least 9 months | Purity [3, 4]: 99.98% | Solid form [3, 4]: Form CSI | Time stable on storage (no change of crystalline form) ([3]; 40° C./75% RH): at least 9 months | Purity [3, 5]: 99.99% | Solid form [3, 5]: Form CSI | Time stable on storage (no change of crystalline form) ([3]; 60° C./75% RH): at least 3 months | Purity [3, 6]: 99.98% | Solid form [3, 6]: Form CSI | Purity ([3]; Initial): 99.98% | Solid form ([3]; Initial): Form CSI
SMILES: CCc1nc(-c2ccc3c(c2)CC[C@H]3NC(=O)c2cnn(C)c2)no1.CCc1nc(-c2ccc3c(c2)CC[C@H]3NC(=O)c2cnn(C)c2)no1.O=C(O)C(O)C(O)C(=O)O [Form CSI]
Crystalline form after ball milling [2]: doesn't change; also recorded: no form change

— US20250382286A1, “CO-CRYSTAL OF AFICAMTEN, AND PREPARATION METHOD THEREFOR AND USE THEREOF” (CRYSTAL PHARMACEUTICAL (SUZHOU) CO., LTD., priority 2023, published 2025)
